Reference: patent US11413278B2, “Compounds and methods for promoting stress resistance” (priority 2015, dated 2022)
Entries after “also recorded” stand apart in the source; their conditions may differ. Read-outs that look alike come from different tables or passages of the source.

Legend:
[1] = test system: NRF2; experiment: qPCR analysis of NRF2-regulated genes; format: cell-based, human; conditions: for Potential NRF2 Activation (>=2 target genes induced, by >=1.5-fold): Assay 13(p); for fold induction at 10 µM: Homo sapiens
Method in brief: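 WI-38 cells treated with compound at 10 μM for 24 hrs, then processed by Cells-to-Ct for RNA isolation, RT and qPCR of NRF2-regulated genes (HMOX1, NQO1, GCLC, GSTM1). Expression normalized to B2M, PPIA and GAPDH; siRNA knockdown of FOXO3 or NRF2 (10 nM) preceded treatment in some runs.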

[2] = molecular target: T1, human PARP1 (Homo sapiens, UniProt P09874); experiment: PARP inhibitor assay (HT Fluorescent Homogeneous PARP Inhibition Assay Kit); format: biochemical; conditions: score
T1 construct: purchased Trevigen
T1 sequence (P09874 whole entry): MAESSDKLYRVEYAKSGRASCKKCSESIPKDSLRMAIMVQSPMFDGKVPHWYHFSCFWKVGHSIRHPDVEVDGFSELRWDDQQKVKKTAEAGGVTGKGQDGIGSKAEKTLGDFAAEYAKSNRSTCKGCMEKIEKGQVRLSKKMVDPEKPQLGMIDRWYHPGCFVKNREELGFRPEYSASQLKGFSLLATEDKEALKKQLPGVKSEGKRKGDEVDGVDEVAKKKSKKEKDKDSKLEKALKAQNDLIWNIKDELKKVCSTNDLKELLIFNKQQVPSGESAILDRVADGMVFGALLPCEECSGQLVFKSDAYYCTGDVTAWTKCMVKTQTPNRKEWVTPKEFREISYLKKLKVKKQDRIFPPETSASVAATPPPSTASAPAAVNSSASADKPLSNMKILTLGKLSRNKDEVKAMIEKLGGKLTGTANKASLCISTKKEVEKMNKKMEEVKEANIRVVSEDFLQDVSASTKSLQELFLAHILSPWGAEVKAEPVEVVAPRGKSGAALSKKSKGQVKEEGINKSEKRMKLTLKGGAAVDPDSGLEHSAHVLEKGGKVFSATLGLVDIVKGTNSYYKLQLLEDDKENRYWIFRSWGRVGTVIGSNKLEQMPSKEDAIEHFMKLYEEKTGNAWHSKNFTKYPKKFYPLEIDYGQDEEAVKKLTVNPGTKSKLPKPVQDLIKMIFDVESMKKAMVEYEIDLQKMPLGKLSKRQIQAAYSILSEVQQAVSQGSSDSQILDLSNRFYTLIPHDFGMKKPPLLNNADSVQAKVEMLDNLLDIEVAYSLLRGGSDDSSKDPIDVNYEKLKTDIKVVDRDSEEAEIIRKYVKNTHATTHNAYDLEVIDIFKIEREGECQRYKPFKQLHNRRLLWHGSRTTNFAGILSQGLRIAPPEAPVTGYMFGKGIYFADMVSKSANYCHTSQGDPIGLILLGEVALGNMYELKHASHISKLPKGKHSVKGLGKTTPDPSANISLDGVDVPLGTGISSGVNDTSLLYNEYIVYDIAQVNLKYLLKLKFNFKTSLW
Method in brief: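 Human PARP1 with NAD and activated DNA, compounds at 10 μM final, 30 min at room temperature in dark. Resazurin/diaphorase cycling mix then added for 1 hr in dark before stop buffer; fluorescent homogeneous kit read-out.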

[3] = test system: WI-38 cells; conditions: no H2O2 stress, 10 uM; negative control 0.41% ± 0.23%
Protocol: WI-38 cells were seeded on 384-well plates for 24 hrs and then incubated with small molecules for 24 hrs. […] Images were collected on an INCell Analyzer 2000 (GE) and analyzed with the Developer software.

[4] = test system: C. elegans; experiment: C. elegans lifespan assays (liquid and plate); format: in vivo, Caenorhabditis elegans; conditions: for ILS at 60 µM / ILS at 66 µM: Caenorhabditis elegans; for O = Life span- extending scores in worms: score scale 0 to 2, 4 to 6 independent trials; for M = Lifespan-extending scores in worms: summary score
[5] = test system: FOXO3; experiment: qPCR analysis of FOXO3-regulated genes; format: cell-based, human; conditions: for fold induction at 10 µM: Homo sapiens; for K = Sestrin induction: score
Method in brief: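 WI-38 cells treated with compound at 10 μM for 24 h, followed by Cells-to-Ct RT-qPCR of FOXO3 target genes normalised to B2M, PPIA and GAPDH. FOXO3 or NRF2 dependence tested by prior 10 nM siRNA knockdown (36 h transfection, compound added ~24 h after replating).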

[6] = 24 h, Assay 12(o), at 10 uM, qPCR, read-out: Induction of NRF2-regulated genes: HMOX1 normalized fold-change
[7] = 24 h, Assay 12(o), at 10 uM, qPCR, read-out: Induction of NRF2-regulated genes: NQO1 normalized fold-change
[8] = rounded fold change, WI-38 cells, 10 μM, 24 hrs (RP11 for Gr-1D, RP29 for Gr-4D), read-out: Summary of effects on NRF2-regulated genes: HMOX1
[9] = rounded fold change, WI-38 cells, 10 μM, 24 hrs (RP29 for Gr-4D), read-out: Summary of effects on NRF2-regulated genes: NQO1
[10] = 10 μM, 24 hrs, WI-38, read-out: Expression of at least two NRF2 target genes
[11] = 10 μM, 24 hrs, WI-38 cells, qPCR, normalized to B2M, n = 4, read-out: HMOX1 expression, normalized fold change (NRF2-regulated gene)
[12] = 10 μM, 24 hrs, WI-38 cells, qPCR, normalized to B2M, n = 4, read-out: NQO1 expression, normalized fold change (NRF2-regulated gene)
[13] = WI-38 cells, 10 μM, 24 hrs, n=4, qPCR normalized by B2M, read-out: GCLC Normalized fold change
[14] = WI-38 cells, 10 μM, 24 hrs, n=4, qPCR normalized by B2M, read-out: GSTM1 Normalized fold change
[15] = WI-38 cells, 10 μM, 24 hrs, n=4, qPCR normalized by B2M, read-out: HMOX1 Normalized fold change
[16] = WI-38 cells, 10 μM, 24 hrs, n=4, qPCR normalized by B2M, read-out: NQO1 Normalized fold change
[17] = in liquid, wild type, with FuDR, 1.0 × 10^9 bacteria/ml, read-out: relative change of mean lifespan vs control, Trial 1
[18] = in liquid, wild type, with FuDR, 2.5 × 10^9 bacteria/ml, read-out: relative change of mean lifespan vs control, Trial 2
[19] = on plate, CF512 temperature-sensitive sterile animals, without FuDR, 2.0 × 10^10 bacteria/ml, read-out: relative change of mean lifespan vs control, Trial 3
[20] = Assay 2(z), 1.0 × 10^9 bacteria/ml, wild type + FuDR (2012 July), read-out: Lifespan assay in liquid
[21] = Assay 3(aa), 2.5 × 10^9 bacteria/ml, wild type + FuDR, read-out: Lifespan assay in liquid
[22] = Assay 4(ab), 2.0 × 10^10 bacteria/ml, CF512 worms, no FuDR, read-out: Lifespan assay on plates
[23] = WI-38 cells, 10 μM, 24 hrs, n=4, qPCR normalized by B2M, read-out: DDB1 Normalized fold change
[24] = WI-38 cells, 10 μM, 24 hrs, n=4, qPCR normalized by B2M, read-out: GADD45A Normalized fold change
[25] = WI-38 cells, 10 μM, 24 hrs, n=4, qPCR normalized by B2M, read-out: SESN1 Normalized fold change
[26] = qPCR, WI-38 cells, 10 μM, n=4, 24 hrs, normalized by B2M, read-out: CAT Normalized fold change
[27] = qPCR, WI-38 cells, 10 μM, n=4, 24 hrs, normalized by B2M, read-out: SOD2 Normalized fold change
[28] = qPCR, WI-38 cells, 10 μM, n=4, 24 hrs, normalized by B2M, read-out: TXNIP Normalized fold change

With COc1ccc(C(=O)/C=C/c2ccc(F)cc2)c(OC)c1 [Gr-4A] the “F = Potential NRF2 Activation” value ([1]; 2-point score) was 2, the “Potential NRF2 Activation (>=2 target genes induced, by >=1.5-fold)” value [1] was “YES” and the fold induction at 10 µM ([1]; 24 h, Assay 12(o), at 10 uM, qPCR, read-out: Induction of NRF2-regulated genes: GSTM1 normalized fold-change) was 1.24. The fold induction at 10 µM [1, 6] was 5.24, the fold induction at 10 µM [1, 7] was 2.73 and the fold induction at 10 µM [1, 8] was 5.24. The fold induction at 10 µM ([1]; rounded fold change, WI-38 cells, 10 μM, 24 hrs (RP29 for Gr-4D), read-out: Summary of effects on NRF2-regulated genes: GSTM1) was 1.24, the fold induction at 10 µM [1, 9] was 2.73 and the fold induction at 10 µM [1, 10] was greater than 1.5. The fold induction at 10 µM ([1]; 10 μM, 24 hrs, WI-38 cells, qPCR, normalized to B2M, n = 4, read-out: GSTM1 expression, normalized fold change (NRF2-regulated gene)) was 1.24, the fold induction at 10 µM [1, 11] was 5.24 and the fold induction at 10 µM [1, 12] was 2.73. For the same compound, the fold induction at 10 µM [1, 13] was 1.18, the fold induction at 10 µM [1, 14] was 1.24 and the fold induction at 10 µM [1, 15] was 5.24. For the same compound, the fold induction at 10 µM [1, 16] was 2.73, the “F = Potential NRF2 Activation” value ([1]; summary score) was 2 and the “L = PARP inhibition” value [2] was 0. The “Percentage of propidium iodide-positive dead cells (no H2O2 stress treatment), at 10 uM” value [3] was 0.39% ± 0.14%,, the ILS at 60 µM [4, 17] was -21.4% and the ILS at 60 µM [4, 18] was 1.2%. It also gave an ILS at 60 µM [4, 19] of -0.1%, an ILS at 66 µM [4, 20] of -21.4% and an ILS at 66 µM [4, 21] of 1.2%. For the same compound, the ILS at 66 µM [4, 22] was -0.1%, the “O = Life span- extending scores in worms” value [4] was 0 and the “M = Lifespan-extending scores in worms” value [4] was 0. For the same compound, the “Induction of at least two of five FOXO3-regulated genes (SOD2, GADD45A, CAT, DDB1, TXNIP)” value ([5]; 10 μM, 24 hrs, WI-38) was “significant induction; also recorded: significant, induction”, the “E = Potential FOXO3 Activation” value ([5]; 2-point score) was 0 and the fold induction at 10 µM ([5]; 24 h, Assay 10(m), at 10 uM, qPCR, read-out: Induction of FOXO3-regulated genes: CAT normalized fold-change) was 1.26. For the same compound, the fold induction at 10 µM ([5]; 24 h, Assay 10(m), at 10 uM, qPCR, read-out: Induction of FOXO3-regulated genes: DDB1 normalized fold-change) was 1.2, the fold induction at 10 µM ([5]; 10 μM, 24 hrs, WI-38 cells, qPCR, normalized to B2M, n = 4, read-out: CAT expression, normalized fold change (FOXO3-regulated gene)) was 1.26 and the fold induction at 10 µM ([5]; 10 μM, 24 hrs, WI-38 cells, qPCR, normalized to B2M, n = 4, read-out: DDB1 expression, normalized fold change (FOXO3-regulated gene)) was 1.2. For the same compound, the fold induction at 10 µM [5, 23] was 1.2, the fold induction at 10 µM [5, 24] was 0.981 and the fold induction at 10 µM [5, 25] was 1.12. It also gave a fold induction at 10 µM ([5]; fold change, qPCR, WI-38 cells, 10 μM, 24 hrs, read-out: Summary of effects on FOXO3-regulated genes: CAT) of 1.26, a fold induction at 10 µM ([5]; fold change, qPCR, WI-38 cells, 10 μM, 24 hrs, read-out: Summary of effects on FOXO3-regulated genes: DDB1) of 1.2 and a fold induction at 10 µM [5, 26] of 1.26. The fold induction at 10 µM [5, 27] was 0.98, the fold induction at 10 µM [5, 28] was 0.819 and the “K = Sestrin induction” value [5] was 0. The “E = Potential FOXO3 Activation” value ([5]; summary score) was 0.
In the case of COc1ccc(C(=O)/C=C/c2ccccc2Br)c(OC)c1 [Gr-4B], the “F = Potential NRF2 Activation” value ([1]; 2-point score) is reported as 2, the “Potential NRF2 Activation (>=2 target genes induced, by >=1.5-fold)” value [1] is reported as “YES” and the fold induction at 10 µM [1, 6] is reported as 4.51. For the same compound, the fold induction at 10 µM [1, 7] was 2.36, the fold induction at 10 µM [1, 8] was 4.51 and the fold induction at 10 µM [1, 9] was 2.36. For the same compound, the fold induction at 10 µM [1, 10] was greater than 1.5, the fold induction at 10 µM [1, 11] was 4.51 and the fold induction at 10 µM [1, 12] was 2.36. For the same compound, the fold induction at 10 µM [1, 13] was 1.15, the fold induction at 10 µM [1, 14] was 1.15 and the fold induction at 10 µM [1, 15] was 4.51. The fold induction at 10 µM [1, 16] was 2.36, the “F = Potential NRF2 Activation” value ([1]; summary score) was 2 and the “L = PARP inhibition” value [2] was 0. The “Percentage of propidium iodide-positive dead cells (no H2O2 stress treatment), at 10 uM” value [3] was 0.36% ± 0.13%,, the ILS at 60 µM [4, 17] was 8.1% and the ILS at 60 µM [4, 18] was 14.5%. It also gave an ILS at 60 µM [4, 19] of 10.7%, an ILS at 66 µM [4, 20] of 8.1% and an ILS at 66 µM [4, 21] of 14.5%. For the same compound, the ILS at 66 µM [4, 22] was 10.7%, the “O = Life span- extending scores in worms” value [4] was 1 (1 for lifespan extension observed in 2 trials) and the “M = Lifespan-extending scores in worms” value [4] was 1 (1 for lifespan extension observed in 2 trials). The “E = Potential FOXO3 Activation” value ([5]; 2-point score) was 0, the fold induction at 10 µM [5, 23] was 1.06 and the fold induction at 10 µM [5, 24] was 0.61. For the same compound, the fold induction at 10 µM [5, 25] was 0.992, the fold induction at 10 µM [5, 26] was 1.18 and the fold induction at 10 µM [5, 27] was 1.04. For the same compound, the fold induction at 10 µM [5, 28] was 0.792, the “K = Sestrin induction” value [5] was 0 and the “E = Potential FOXO3 Activation” value ([5]; summary score) was 0.
